Test results taken from US9921224B2, “Use of CD36 to identify cancer subjects for treatment” (Children's Medical Center Corporation, priority 2013, dated 2018).
Where no end group is shown, it is not given here. [ ]: non-standard residue; d: D form.

What was measured:
[1] = system: ovarian cancer cells expressing luciferase; experiment: Ovarian cancer mouse model (luciferase intensity); format: in vivo; conditions: high CD36 ovarian cancer model
Procedure: For the ovarian cancer mouse model, 1 million ovarian cancer cells expressing luciferase were injected intraperitoneally. Treatment was initiated 17 days later with cisplatin (4 mg/kg QOD), the psap peptide dWlP (SEQ ID NO: 47, 40 mg/kg QD), a combination of cisplatin and psap peptide, or PBS QD. Luciferase intensity was measured on several days beginning on about day 17 and measured over time.

[2] = system: AsPc1 human pancreatic cells; experiment: Pancreatic cancer mouse model; format: in vivo, SCID mice; conditions: for primary tumor mass: high CD36 AsPC pancreatic model, SCID mice, 20 or 40 mg/kg/day, from day 25 daily for 21 days
Procedure: For the pancreatic cancer mouse model, 1×10^6 AsPc1 human pancreatic cells were injected into the pancreas of SCID mice. Mice were treated either with a control or with the psap peptide dWlP (SEQ ID NO: 47, 20 mg/kg/day or 40/mg/kg/day). Treatment began on day 25 and continued daily for 21 days. The mice were then euthanized and the primary tumor mass was measured. The presence or absence of ascites was also measured.

B16-B16 cells = experiment: Melanoma mouse model; format: in vivo, mice; conditions: low CD36 B16-B16 melanoma; 10 or 40 mg/kg; up to about 20-25 days post cell injection
Procedure: For the melanoma mouse model, B16-B16 cells were injected into mice. Mice were treated with either psap peptide dWlP (SEQ ID NO: 47, 10 or 40 mg/kg) or control. The volume of the tumor was measured over time up until about 20-25 days post cell injection.

LLC cells = experiment: In vitro cell proliferation (MTT) assay, LLC cells; format: cell-based, murine; conditions: 48 hours after addition of serially diluted amounts
Procedure: Cell proliferation was measured using the MTT (3-{4,5-Dimethylthiazol-2-yl}-2,5-diphenyltetrazolium bromide, Sigma-Aldrich) assay. Cells were seeded in 50 uL growth medium in 96 well culture plates and allowed to attach overnight. 50 uL of growth medium plus two-fold concentrated treatment reagents were then added. After each treatment time point, 10 uL of 5% MTT solution (buffered in PBS) was added to each well. Plates were incubated for an additional 4 h at 37° C. to allow MTT to be metabolically converted into formazan crystals at cell mitochondria. The formazan crystals were finally solubilized by adding 100 ul of 10% Sodium Dodecyl Sulphate in 50% N—N-Dimethylformamide to each microplate well. Absorbances at 550 and 680 nm (corresponding to formazan salt and reference wavelengths, respectively) were measured using a colorimetry microplate reader. Wells containing only complete medium were used as controls. Each experiment was performed twice, using six replicates for each drug concentration.
To test this, LLC cells were treated with either recombinant Tsp-1 or DWLPK (SEQ ID NO: 2) Psap peptide and cell proliferation was measured using an MTT assay. […] This supports the hypothesis that Tsp-1 can act directly on cancer cells, as this assay was performed in vitro in the absence of any blood vessels.

[3] = system: Ovarian cancer cells expressing CD36; experiment: Viability of ovarian cancer cells expressing CD36 treated with Tsp-1; format: cell-based; conditions: Tsp-1 100 ng, 500 ng or 1000 ng; 0 hours or 48 hours
Procedure: Ovarian cancer cells expressing CD36 were treated with either control or thrombospondin (Tsp-1, either 100 ng, 500 ng or 1000 ng) and the percent of viable cells was measured at 0 hours or 48 hours.

| Substance | metastatic disease ([1]; dWlP 40 mg/kg QD) | tumor response (luciferase intensity over time) ([1]; dWlP 40 mg/kg QD from day 17) | primary tumor mass [2] | primary tumor mass ([2]; listed as psap peptide) | mice that form ascites (inhibition of metastasis) ([2]; pancreatic cancer model, control: 4 of 10 mice) | tumor growth (tumor volume over time) (B16-B16 cells) | cell proliferation (MTT assay) (LLC cells) | percent of viable cells (Tsp-1 mediated cell killing) [3] |
| --- | --- | --- | --- | --- | --- | --- | --- | --- |
| dWlP: psap peptide dWlP (SEQ ID NO: 47); lower case D and L indicate D-amino acids ([dD]W[dL]P) | showed regression of metastatic disease | caused regression of cancer | primary tumor mass was inhibited | regressed | 1 of 19 | inhibited tumor growth but did not regress the tumor | – | – |
| Tsp-1: recombinant thrombospondin (Tsp-1), a ligand of CD36 | – | – | – | – | – | – | capable of decreasing cell proliferation | sensitive to Tsp-1 mediated cell killing in a dose-dependent manner |
| DWLPK: DWLPK (SEQ ID NO: 2) Psap peptide, derived from a fragment of Saposin A (Psap peptide) | – | – | – | – | – | – | did not affect cell proliferation | – |
